Assay results taken from patent US20240165144A1, “COMPOSITIONS AND METHODS FOR MODULATING INNATE IMMUNE SIGNALING PATHWAYS” (Dana-Farber Cancer Institute, Inc., priority 2019, published 2024).

System: cGAS-STING signaling
Experiment: interferon reporter assay with transfected polar cell extracts
Type: cell-based
Conditions: iterative HPLC purification on 3 columns; single peak at retention time 24.5 minutes; FIG. 3
Source text: FIG. 1A-FIG. 1B—FIG. 1A cGAS is an innate immune signaling enzyme that generates cyclic GMP-AMP in response to cytosolic DNA, image adapted from (7); FIG. 1B.
Applicants then transfected these extracts into the assay that was used to measure the effects of MB21D2 expression on interferon signaling (FIG. 1B workflow at top).

With `Nc1ncnc2c1ncn2[C@@H]1O[C@H](CO)[C@@H](O)[C@H]1OP(=O)([O-])OP(=O)([O-])OP(=O)([O-])[O-].[Na+].[Na+].[Na+].[Na+]` [2′-ATP, Adenosine 2′-Triphosphate, Sodium Salt] the “anti-STING activity of HPLC-purified fraction” value was “anti-STING activity was localized to a single peak”.
